Test results as given in patent US12202821B2, “Herbicidal compounds” (SYNGENTA CROP PROTECTION AG, priority 2019, dated 2025).

How the values were obtained:
Type in all cases: in vivo
ELEIN = assay: Post-emergence biological efficacy; conditions: 312 h, evaluated after 13 days, read-out: damage to plant (100=total damage to plant; 0=no damage to plant), ELEIN
Procedure: (§1) Post-Emergence Biological Efficacy
(§2) Seeds of weeds and/or crops were sown in standard soil in pots. After cultivation for 8 days under controlled conditions in a glasshouse (at 24/16° C., day/night; 14 hours light; 65% humidity), the plants were sprayed with an aqueous spray solution derived from the formulation of the technical active ingredient in acetone/water (50:50) solution containing 0.5% Tween 20 (polyoxyethylene sorbitan monolaurate, CAS RN 9005-64-5) to give the desired final dose of test compound.
(§3) The test plants were then grown on under controlled conditions in a glasshouse (at 24/16° C., day/night; 14 hours light; 65% humidity) and watered twice daily. After 13 days the test was evaluated (100=total damage to plant; 0=no damage to plant).

SETFA [1] = assay: Post-emergence biological efficacy; conditions: Setaria faberi, 312 h, evaluated after 13 days, read-out: damage to plant (100=total damage to plant; 0=no damage to plant), SETFA
Procedure: as §1, §2, §3

LOLPE [2] = assay: Post-emergence biological efficacy; conditions: evaluated after 13 days; for pest or weed control at 250 g/ha: 312 h, read-out: damage to plant (100=total damage to plant; 0=no damage to plant), LOLPE
Procedure: as §1, §2, §3

DIGSA = assay: Post-emergence biological efficacy; conditions: Digitaria sanguinalis, 312 h, evaluated after 13 days, read-out: damage to plant (100=total damage to plant; 0=no damage to plant), DIGSA
Procedure: as §1, §2, §3

IPOHE [3] = assay: Post-emergence biological efficacy; conditions: Ipomoea hederacea, 312 h, evaluated after 13 days, read-out: damage to plant (100=total damage to plant; 0=no damage to plant), IPOHE
Procedure: as §1, §2, §3

AMAPA [4] = assay: Post-emergence biological efficacy; conditions: 312 h, evaluated after 13 days, read-out: damage to plant (100=total damage to plant; 0=no damage to plant), AMAPA
Procedure: as §1, §2, §3

EPHHL [5] = assay: Post-emergence biological efficacy; conditions: 312 h, evaluated after 13 days, read-out: damage to plant (100=total damage to plant; 0=no damage to plant), EPHHL
Procedure: as §1, §2, §3

ECHCG [6] = assay: Post-emergence biological efficacy; conditions: Echinochloa crus-galli, 312 h, evaluated after 13 days, read-out: damage to plant (100=total damage to plant; 0=no damage to plant), ECHCG
Procedure: as §1, §2, §3

CHEAL = assay: Post-emergence biological efficacy; conditions: Chenopodium album, 312 h, evaluated after 13 days, read-out: damage to plant (100=total damage to plant; 0=no damage to plant), CHEAL
Procedure: as §1, §2, §3

SETFA [7] = assay: Pre-emergence biological efficacy; conditions: Setaria faberi, 312 h, evaluated after 13 days, read-out: damage to plant (100=total damage to plant; 0=no damage to plant), SETFA
Procedure: (§4) Pre-Emergence Biological Efficacy
as §2, with “one day” for “8 days”
(§5) The test plants were then grown under controlled conditions in the glasshouse (at 24/16° C., day/night; 14 hours light; 65% humidity) and watered twice daily. After 13 days the test was evaluated (100=total damage to plant; 0=no damage to plant).

LOLPE [8] = assay: Pre-emergence biological efficacy; conditions: 312 h, evaluated after 13 days, read-out: damage to plant (100=total damage to plant; 0=no damage to plant), LOLPE
Procedure: as §4
as §2, with “one day” for “8 days”
as §5

IPOHE [9] = assay: Pre-emergence biological efficacy; conditions: Ipomoea hederacea, 312 h, evaluated after 13 days, read-out: damage to plant (100=total damage to plant; 0=no damage to plant), IPOHE
Procedure: as §4
as §2, with “one day” for “8 days”
as §5

AMAPA [10] = assay: Pre-emergence biological efficacy; conditions: 312 h, evaluated after 13 days, read-out: damage to plant (100=total damage to plant; 0=no damage to plant), AMAPA
Procedure: as §4
as §2, with “one day” for “8 days”
as §5

EPHHL [11] = assay: Pre-emergence biological efficacy; conditions: 312 h, evaluated after 13 days, read-out: damage to plant (100=total damage to plant; 0=no damage to plant), EPHHL
Procedure: as §4
as §2, with “one day” for “8 days”
as §5

ECHCG [12] = assay: Pre-emergence biological efficacy; conditions: Echinochloa crus-galli, 312 h, evaluated after 13 days, read-out: damage to plant (100=total damage to plant; 0=no damage to plant), ECHCG
Procedure: as §4
as §2, with “one day” for “8 days”
as §5

CC(=NO)C1(C)CC(c2cc(-n3c(=O)n(C)c(=S)n(C)c3=O)c(F)cc2Cl)NO1 (stereo not drawn) [Compound 296, 3-[4-Chloro-2-fluoro-5-[5-[N-hydroxy-C-methyl-carbonimidoyl]-5-methyl-isoxazolidin-3-yl]phenyl]-1,5-dimethyl-6-thioxo-1,3,5-triazinane-2,4-dione]
pest or weed control at 250 g/ha (ELEIN): 90%
pest or weed control at 250 g/ha (SETFA [1]): 80%
pest or weed control at 250 g/ha (LOLPE [2]): 70%
pest or weed control at 250 g/ha (DIGSA): 70%
pest or weed control at 250 g/ha (IPOHE [3]): 90%
pest or weed control at 250 g/ha (AMAPA [4]): 100%
pest or weed control at 250 g/ha (EPHHL [5]): 80%
pest or weed control at 250 g/ha (ECHCG [6]): 30%
pest or weed control at 250 g/ha (CHEAL): 100%
pest or weed control at 250 g/ha (SETFA [7]): 100%
pest or weed control at 250 g/ha (LOLPE [8]): 80%
pest or weed control at 250 g/ha (IPOHE [9]): 90%
pest or weed control at 250 g/ha (AMAPA [10]): 100%
pest or weed control at 250 g/ha (EPHHL [11]): 90%
pest or weed control at 250 g/ha (ECHCG [12]): 80%

COC(=O)C1(C)ON=C(c2cc(-n3c(=O)n(C)c(=S)n(C)c3=O)c(F)cc2Cl)C1C (stereo not drawn) [Compound 145, Methyl 3-[2-chloro-5-(3,5-dimethyl-2,6-dioxo-4-thioxo-1,3,5-triazinan-1-yl)-4-fluoro-phenyl]-4,5-dimethyl-4H-isoxazole-5-carboxylate]
pest or weed control at 250 g/ha (ELEIN): 100%
pest or weed control at 250 g/ha (SETFA [1]): 100%
pest or weed control at 250 g/ha (LOLPE [2]): 100%
pest or weed control at 250 g/ha (DIGSA): 100%
pest or weed control at 250 g/ha (IPOHE [3]): 100%
pest or weed control at 250 g/ha (AMAPA [4]): 100%
pest or weed control at 250 g/ha (EPHHL [5]): 100%
pest or weed control at 250 g/ha (ECHCG [6]): 100%
pest or weed control at 250 g/ha (CHEAL): 100%
pest or weed control at 250 g/ha (SETFA [7]): 100%
pest or weed control at 250 g/ha (LOLPE [8]): 90%
pest or weed control at 250 g/ha (IPOHE [9]): 100%
pest or weed control at 250 g/ha (AMAPA [10]): 100%
pest or weed control at 250 g/ha (EPHHL [11]): 100%
pest or weed control at 250 g/ha (ECHCG [12]): 90%

CC(=O)C1(C)CC(c2cc(-n3c(=O)n(C)c(=S)n(C)c3=O)c(F)cc2Cl)=NO1 (stereo not drawn) [Compound 290, 3-[5-(5-Acetyl-5-methyl-4H-isoxazol-3-yl)-4-chloro-2-fluoro-phenyl]-1,5-dimethyl-6-thioxo-1,3,5-triazinane-2,4-dione]
pest or weed control at 250 g/ha (ELEIN): 100%
pest or weed control at 250 g/ha (SETFA [1]): 90%
pest or weed control at 250 g/ha (LOLPE [2]): 90%
pest or weed control at 250 g/ha (DIGSA): 100%
pest or weed control at 250 g/ha (IPOHE [3]): 100%
pest or weed control at 250 g/ha (AMAPA [4]): 100%
pest or weed control at 250 g/ha (EPHHL [5]): 100%
pest or weed control at 250 g/ha (ECHCG [6]): 90%
pest or weed control at 250 g/ha (CHEAL): 100%
pest or weed control at 250 g/ha (SETFA [7]): 100%
pest or weed control at 250 g/ha (LOLPE [8]): 90%
pest or weed control at 250 g/ha (IPOHE [9]): 100%
pest or weed control at 250 g/ha (AMAPA [10]): 100%
pest or weed control at 250 g/ha (EPHHL [11]): 100%
pest or weed control at 250 g/ha (ECHCG [12]): 90%

CCOC(=O)C1(C)CC(c2cc(-n3c(=O)n(C)c(=S)n(C)c3=O)c(F)cc2Cl)=NO1 (single isomer, unassigned) [Compound 47 (enantiomer B)]
pest or weed control at 250 g/ha (ELEIN): 100%
pest or weed control at 250 g/ha (SETFA [1]): 100%
damage to plant (100=total damage to plant; 0=no damage to plant), LOLPE (LOLPE [2]; 250 g/ha): 100
pest or weed control at 250 g/ha (DIGSA): 100%
pest or weed control at 250 g/ha (IPOHE [3]): 100%
pest or weed control at 250 g/ha (AMAPA [4]): 100%
pest or weed control at 250 g/ha (EPHHL [5]): 100%
pest or weed control at 250 g/ha (ECHCG [6]): 100%
pest or weed control at 250 g/ha (CHEAL): 100%
pest or weed control at 250 g/ha (SETFA [7]): 100%
pest or weed control at 250 g/ha (LOLPE [8]): 40%
pest or weed control at 250 g/ha (IPOHE [9]): 80%
pest or weed control at 250 g/ha (AMAPA [10]): 100%
pest or weed control at 250 g/ha (EPHHL [11]): 100%
pest or weed control at 250 g/ha (ECHCG [12]): 50%
